Reference: PubChem BioAssay AID1963833 (Molecular Pharmacology Branch, DTP, NCI, 2024)

System: 883617-216-R-J1-PDC complex spheroid viability
Experiment: Anticancer human tumor 883617-216-R-J1-PDC patient-derived bladder carcinoma cell line growth inhibition [POLQ]
Conditions: for IC50: curve of first compound; for viability, T/C: stronger effect = lower value
Description: Multicellular complex tumor spheroid response to Polymerase (POL) inhibitors (novobiocin, ART-558, RP6685) in combination with a variety of drugs and investigational agents in selected tumor cell lines
The POL inhibitors (novobiocin, ART-558, and RP6685) were evaluated both individually and in combination with standard of care and investigational anticancer small molecules within a complex spheroid model of solid tumors. . Complex spheroids include a stromal component modeled by human endothelial cells (HUVEC) and fibroblasts modeled by human mesenchymal stem cells (MSCs). The concentration ranges selected for each drug and investigational agent were based upon clinically achievable concentrations if the clinical Cmax of the agent was known.
Compounds. The drugs and investigational agents: novobiocin (NSC847541), ART-558 (NSC835418), RP-6685 (NSC848927), peposertib (NSC802822), ceralasertib (NSC780249), elimusertib (NSC800525), camonsertib (NSC841442), AZD-1390 (NSC803789), olaparib (NSC753686), talazoparib (NSC767125), rucaparib (NSC756644), sotorasib (NSC818433), MRTX-1133 (NSC836407), SN-38 (NSC673596), topotecan (NSC609699), epotoside (NSC141540), doxorubicin (NSC123127), gemcitabine (NSC613327), 5-fluorouracil (NSC19893), paclitaxel (NSC125973), vemurafenib (NSC761431), MSA-2 (NSC828583), SN-011 (NSC837082), adavosertib (NSC754352), prexasertib (NSC758257), carboplatin (NSC241240) and oxaliplatin (NSC266046), were obtained from the National Cancer Institute (NCI) Developmental Therapeutics Program Chemical Repository (21). The FDA-approved anticancer drug set is available from the Developmental Therapeutics Program at https://dtp.cancer.gov/organization/dscb/obtaining/. […] The stock solutions were prepared in dimethyl sulfoxide (DMSO, Sigma-Aldrich, St. Louis, MO, cat. D2650), except for the platinum compounds which were prepared in saline (Quality Biological, Gaithersburg, MD, cat. 114-055-101), at 800-fold the tested concentration and stored at -70 degrees C prior to their use. All drugs and investigational agents were tested over a range starting from a high concentration at or near the clinical Cmax and decreasing in half-log increments. If the clinical Cmax for an agent had not been determined, the highest concentration tested was 10 microM, except for SN-38, which was tested at a high concentration of 1 microM.
Cell Culture. All cells were maintained in an incubator at 37 degrees C and 5% CO2 with 95% humidity. The PDC lines were cultured according to standard operating procedures established by the NCI PDMR (https://pdmr.cancer.gov). Table 3 of the manuscript, lists the cell lines along with the number of the three cell types plated to form the mct-spheroids and media for tumor cell growth. After thawing, all PDC lines, except 997537-175-T-J1-PDC and 415267-285-R-J2-PDC, were cultured in Matrigel-coated flasks prepared with a working solution of 1X Ham's F-12 nutrient mix, without supplementation (Thermo Fisher Scientific, cat. 11765054), 100 U/mL penicillin-streptomycin (Thermo Fisher Scientific, cat. 15140122), and 2.5% Matrigel (Corning Inc., Corning, NY, cat. 354248) for the first three passages. The two PDC lines 997537-175-T-J1-PDC and 415267-285-R-J2-PDC were cultured on uncoated flasks. The 857933-349-R-J2-PDC line was cultured in 6C/Colon 1B media containing advanced DMEM/F-12 (Thermo Fisher Scientific, cat. 12634028), 10 mM HEPES (Thermo Fisher Scientific, cat. 15630080), 1X GlutaMAX supplement (Thermo Fisher Scientific, cat. 35050061), 0.1 mg/mL primocin (InvivoGen, San Diego, CA, cat. ant-pm-2), 10% defined fetal bovine serum, heat inactivated (HyClone Laboratories Inc., Logan, UT, cat. SH30070.03HI), 50% L-WRN conditioned media (ATCC, cat. CRL-3276), 1.25 mM N-Acetyl-L-cysteine (Sigma-Aldrich, cat. A9165), 10 mM nicotinamide (Sigma-Aldrich, cat. N0636), 1X B-27 supplement (Thermo Fisher Scientific, cat. 17504044), 1X N-2 supplement (Thermo Fisher Scientific, cat. […]

[1] = second compound 0.0316 µM, first compound 0.0316 µM
[2] = second compound 0.0316 µM, first compound 0.1 µM
[3] = second compound 0.0316 µM, first compound 0.316 µM
[4] = second compound 0.0316 µM, first compound 1 µM
[5] = second compound 0.0316 µM, first compound 3.16 µM
[6] = second compound 0.0316 µM, first compound 10 µM
[7] = second compound 0.1 µM, first compound 0.0316 µM
[8] = second compound 0.1 µM, first compound 0.1 µM
[9] = second compound 0.1 µM, first compound 0.316 µM
[10] = second compound 0.1 µM, first compound 1 µM
[11] = second compound 0.1 µM, first compound 3.16 µM
[12] = second compound 0.1 µM, first compound 10 µM
[13] = second compound 0.316 µM, first compound 0.0316 µM
[14] = second compound 0.316 µM, first compound 0.1 µM
[15] = second compound 0.316 µM, first compound 0.316 µM
[16] = second compound 0.316 µM, first compound 1 µM
[17] = second compound 0.316 µM, first compound 3.16 µM
[18] = second compound 0.316 µM, first compound 10 µM
[19] = second compound 1 µM, first compound 0.0316 µM
[20] = second compound 1 µM, first compound 0.1 µM
[21] = second compound 1 µM, first compound 0.316 µM
[22] = second compound 1 µM, first compound 1 µM
[23] = second compound 1 µM, first compound 3.16 µM
[24] = second compound 1 µM, first compound 10 µM
[25] = second compound 3.16 µM, first compound 0.0316 µM
[26] = second compound 3.16 µM, first compound 0.1 µM
[27] = second compound 3.16 µM, first compound 0.316 µM
[28] = second compound 3.16 µM, first compound 1 µM
[29] = second compound 3.16 µM, first compound 3.16 µM
[30] = second compound 3.16 µM, first compound 10 µM
[31] = second compound 10 µM, first compound 0.0316 µM
[32] = second compound 10 µM, first compound 0.1 µM
[33] = second compound 10 µM, first compound 0.316 µM
[34] = second compound 10 µM, first compound 1 µM
[35] = second compound 10 µM, first compound 3.16 µM
[36] = second compound 10 µM, first compound 10 µM
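Also: spheroids exposed to compounds for seven days before readout.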
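For viability, T/C in this document: 100% = DMSO vehicle control viability.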

## CCc1cc2c(N3CCc4c(cc(Cn5ccnc5)cc4-c4cn(C)nc4C(F)(F)F)C3=O)cc(C)nc2c(OC)n1 + COC1C(OC(N)=O)C(O)C(Oc2ccc3c(O)c(NC(=O)c4ccc(O)c(CC=C(C)C)c4)c(=O)oc3c2C)OC1(C)C
Second compound 0.0316 µM
  IC50: > 10 µM
Second compound 0.1 µM
  IC50: 8.76 µM
Second compound 0.316 µM
  IC50: 9.29 µM
Second compound 1 µM
  IC50: > 10 µM
Second compound 3.16 µM
  IC50: > 10 µM
Second compound 10 µM
  IC50: > 10 µM
[1]
  viability, T/C: 96.2%
[2]
  viability, T/C: 105%
[3]
  viability, T/C: 96.8%
[4]
  viability, T/C: 80.6%
[5]
  viability, T/C: 77.2%
[6]
  viability, T/C: 58.9%
[7]
  viability, T/C: 98.4%
[8]
  viability, T/C: 106%
[9]
  viability, T/C: 109%
[10]
  viability, T/C: 94.9%
[11]
  viability, T/C: 68%
[12]
  viability, T/C: 47.6%
[13]
  viability, T/C: 107%
[14]
  viability, T/C: 109%
[15]
  viability, T/C: 105%
[16]
  viability, T/C: 86.2%
[17]
  viability, T/C: 75%
[18]
  viability, T/C: 48%
[19]
  viability, T/C: 99%
[20]
  viability, T/C: 101%
[21]
  viability, T/C: 96.6%
[22]
  viability, T/C: 106%
[23]
  viability, T/C: 75.3%
[24]
  viability, T/C: 61.3%
[25]
  viability, T/C: 96.3%
[26]
  viability, T/C: 103%
[27]
  viability, T/C: 115%
[28]
  viability, T/C: 89.7%
[29]
  viability, T/C: 75.8%
[30]
  viability, T/C: 58.4%
[31]
  viability, T/C: 99.8%
[32]
  viability, T/C: 99.6%
[33]
  viability, T/C: 97.1%
[34]
  viability, T/C: 97.4%
[35]
  viability, T/C: 72.7%
[36]
  viability, T/C: 59.4%

## COc1ccc([C@@H](O)c2cc(-c3ncnc4cc(N5CCOCC5)ccc34)c(F)cc2Cl)nn1 + Nc1ccc(C#CCN(C(=O)Cc2ncc(C(F)(F)F)cc2C(F)(F)F)c2ccc(F)cc2)nn1
Second compound 0.0316 µM
  IC50: 2.81 µM
Second compound 0.1 µM
  IC50: 2.8 µM
Second compound 0.316 µM
  IC50: 2.66 µM
Second compound 1 µM
  IC50: 3.41 µM
Second compound 3.16 µM
  IC50: 2.87 µM
Second compound 10 µM
  IC50: 2.5 µM
[1]
  viability, T/C: 104%
[2]
  viability, T/C: 92.5%
[3]
  viability, T/C: 90.1%
[4]
  viability, T/C: 66.7%
[5]
  viability, T/C: 48%
[6]
  viability, T/C: 36.6%
[7]
  viability, T/C: 75.6%
[8]
  viability, T/C: 97.9%
[9]
  viability, T/C: 84.6%
[10]
  viability, T/C: 63.2%
[11]
  viability, T/C: 51.9%
[12]
  viability, T/C: 33.1%
[13]
  viability, T/C: 108%
[14]
  viability, T/C: 99.7%
[15]
  viability, T/C: 84.3%
[16]
  viability, T/C: 62.8%
[17]
  viability, T/C: 49.8%
[18]
  viability, T/C: 31.4%
[19]
  viability, T/C: 94.8%
[20]
  viability, T/C: 89.3%
[21]
  viability, T/C: 77.9%
[22]
  viability, T/C: 68.2%
[23]
  viability, T/C: 50%
[24]
  viability, T/C: 35.9%
[25]
  viability, T/C: 96.3%
[26]
  viability, T/C: 102%
[27]
  viability, T/C: 90.8%
[28]
  viability, T/C: 68.3%
[29]
  viability, T/C: 50.6%
[30]
  viability, T/C: 37.1%
[31]
  viability, T/C: 108%
[32]
  viability, T/C: 103%
[33]
  viability, T/C: 101%
[34]
  viability, T/C: 75.5%
[35]
  viability, T/C: 43.6%
[36]
  viability, T/C: 32.6%
